Measurements as given in patent publication US11110084B2, “Opioid formulations” (Camurus AB, priority 2012, dated 2021).

Settings: disodium fluorescein 5 mg/g, 0.1 g in 2 ml PBS

O=C([O-])c1ccccc1-c1c2ccc(=O)cc-2oc2cc([O-])ccc12.[Na+].[Na+] [Fluo, disodium fluorescein]
% release (37° C.) 72 h: about 0.4%
